The values that follow come from ChEMBL document CHEMBL3046207, “Synthesis of a new series of 2-(2-oxo-2H-chromen-3-yl)-5H-chromeno[4,3-b]pyridin-5-ones by two facile methods and evaluation of their antimicrobial activity” (2013).

Values after ≈ are worked out from the molar mass of the structure shown.

Assay [1] relates to Candida albicans. The assay is described as follows: Antifungal activity against Candida albicans MTCC 227 by broth dilution method. The format is functional. (In general: Broth dilution looks for growth in wells or tubes with falling amounts of substance.)
Assay [2] concerns Aspergillus niger. The assay is described as follows: Antifungal activity against Aspergillus niger MTCC 282 by broth dilution method. The format is functional.
Assay [3] concerns Bacillus subtilis. The experiment in a line: Antibacterial activity against Bacillus subtilis MTCC 441 by broth dilution method. The class given is functional.
In assay [4] the test system is Staphylococcus aureus. The assay is described as follows: Antibacterial activity against Staphylococcus aureus MTCC 96 by broth dilution method. The format is functional.
Assay [5] deals with Escherichia coli. The assay is described as follows: Antibacterial activity against Escherichia coli MTCC 443 by broth dilution method. The format is functional.
The test system of assay [6] is Salmonella typhimurium. The assay is described as follows: Antibacterial activity against Salmonella enterica typhimurium MTCC 98 by broth dilution method. The format is functional, Salmonella enterica subsp. enterica serovar Typhimurium.

As to `COc1cccc2cc(-c3ccc4c(=O)oc5c(C)cccc5c4n3)c(=O)oc12`, the minimal inhibitory concentration (MIC) – broadly, the least concentration at which growth counts as inhibited – was 200 µg/mL (≈ 519 µM) in assay [1]; more than 1000 µg/mL in assay [2]; 125 µg/mL (≈ 324 µM) in assay [3]; 250 µg/mL (≈ 649 µM) in assay [4]; 250 µg/mL (≈ 649 µM) in assay [5]; 250 µg/mL (≈ 649 µM) in assay [6].

Take `Cc1cccc2c1oc(=O)c1ccc(-c3cc4c(ccc5ccccc54)oc3=O)nc12`: the MIC is 1000 µg/mL (≈ 2470 µM) in assay [1]; more than 1000 µg/mL in assay [2]; 125 µg/mL (≈ 308 µM) in assay [3]; 100 µg/mL (≈ 247 µM) in assay [4]; 62.5 µg/mL (≈ 154 µM) in assay [5]; 100 µg/mL (≈ 247 µM) in assay [6].

`COC1=CC(=O)C[C@@H](C)[C@]12Oc1c(Cl)c(OC)cc(OC)c1C2=O` [GRISEOFULVIN]: the figures for the MIC in assay [1] and in assay [2] were 500 µg/mL (≈ 1420 µM) and 100 µg/mL (≈ 283 µM), respectively.

As to `Cc1ccc2oc(=O)c3ccc(-c4cc5c(ccc6ccccc65)oc4=O)nc3c2c1`, the minimum inhibitory concentration (MIC) in assay [1] was determined as 1000 µg/mL (≈ 2470 µM); in assay [2], 500 µg/mL (≈ 1230 µM); in assay [3], 200 µg/mL (≈ 493 µM); in assay [4], 62.5 µg/mL (≈ 154 µM); in assay [5], 250 µg/mL (≈ 617 µM); in assay [6], 250 µg/mL (≈ 617 µM).

Regarding `CCn1cc(C(=O)O)c(=O)c2cc(F)c(N3CCNCC3)cc21` [NORFLOXACIN], the minimal inhibitory concentration (MIC) in assay [3] was 100 µg/mL (≈ 313 µM); in assay [4], 10 µg/mL (≈ 31.3 µM); in assay [5] it was 10 µg/mL (≈ 31.3 µM); in assay [6] it was 10 µg/mL (≈ 31.3 µM).

As to `O=c1oc2ccccc2cc1-c1ccc2c(=O)oc3ccc(Cl)cc3c2n1`, the MIC in assay [1] was more than 1000 µg/mL; in assay [2], more than 1000 µg/mL; in assay [3], 200 µg/mL (≈ 532 µM); in assay [4], 125 µg/mL (≈ 333 µM); in assay [5] it was 125 µg/mL (≈ 333 µM); in assay [6], 100 µg/mL (≈ 266 µM).

With `COc1cccc2cc(-c3ccc4c(=O)oc5ccc(C)cc5c4n3)c(=O)oc12`, the MIC in assay [1] came to 1000 µg/mL (≈ 2590 µM); in assay [2], 500 µg/mL (≈ 1300 µM); in assay [3] it was 62.5 µg/mL (≈ 162 µM); in assay [4] it was 100 µg/mL (≈ 259 µM); in assay [5], 250 µg/mL (≈ 649 µM); in assay [6] it was 200 µg/mL (≈ 519 µM).

Regarding `O=c1oc2ccccc2cc1-c1ccc2c(=O)oc3ccccc3c2n1`, the MIC in assay [1] came to 1000 µg/mL (≈ 2930 µM); in assay [2] it was 500 µg/mL (≈ 1460 µM); in assay [3], 250 µg/mL (≈ 732 µM); in assay [4] it was 200 µg/mL (≈ 586 µM); in assay [5] it was 125 µg/mL (≈ 366 µM); in assay [6] it was 200 µg/mL (≈ 586 µM).

For `O=c1oc2ccc3ccccc3c2cc1-c1ccc2c(=O)oc3ccccc3c2n1`, the MIC in assay [1] is 250 µg/mL (≈ 639 µM); in assay [2] it was more than 1000 µg/mL; in assay [3], 125 µg/mL (≈ 319 µM); in assay [4] it was 100 µg/mL (≈ 256 µM); in assay [5] it was 250 µg/mL (≈ 639 µM); in assay [6], 200 µg/mL (≈ 511 µM).

Take `COc1cccc2cc(-c3ccc4c(=O)oc5ccc(Cl)cc5c4n3)c(=O)oc12`: the minimal inhibitory concentration (MIC) in assay [1] was more than 1000 µg/mL; in assay [2] it was 500 µg/mL (≈ 1230 µM); in assay [3] it was 62.5 µg/mL (≈ 154 µM); in assay [4], 200 µg/mL (≈ 493 µM); in assay [5], 200 µg/mL (≈ 493 µM); in assay [6] it was 250 µg/mL (≈ 616 µM).

`Cc1ccc2oc(=O)c3ccc(-c4cc5ccccc5oc4=O)nc3c2c1`: the minimal inhibitory concentration (MIC) is 500 µg/mL (≈ 1410 µM) in assay [1]; more than 1000 µg/mL in assay [2]; 200 µg/mL (≈ 563 µM) in assay [3]; 250 µg/mL (≈ 704 µM) in assay [4]; 125 µg/mL (≈ 352 µM) in assay [5]; 125 µg/mL (≈ 352 µM) in assay [6].

On to `CC1(C)S[C@@H]2[C@H](NC(=O)[C@H](N)c3ccccc3)C(=O)N2[C@H]1C(=O)O` [AMPICILLIN], for which the minimal inhibitory concentration (MIC) in assay [3] came out at 250 µg/mL (≈ 715 µM); in assay [4] it was 250 µg/mL (≈ 715 µM); in assay [5], 100 µg/mL (≈ 286 µM); in assay [6] it was 100 µg/mL (≈ 286 µM).

For the compound `O=c1oc2ccc3ccccc3c2cc1-c1ccc2c(=O)oc3ccc(Cl)cc3c2n1`, the minimum inhibitory concentration (MIC) in assay [1] turned out to be 500 µg/mL (≈ 1170 µM); in assay [2], 1000 µg/mL (≈ 2350 µM); in assay [3], 200 µg/mL (≈ 470 µM); in assay [4], 62.5 µg/mL (≈ 147 µM); in assay [5], 62.5 µg/mL (≈ 147 µM); in assay [6], 100 µg/mL (≈ 235 µM).

On to NYSTATIN, for which the MIC in assay [1] and in assay [2] was 100 µg/mL each time.

`Cc1cccc2c1oc(=O)c1ccc(-c3cc4ccccc4oc3=O)nc12`: the MIC in assay [1] is 500 µg/mL (≈ 1410 µM); in assay [2] it was more than 1000 µg/mL; in assay [3], 250 µg/mL (≈ 704 µM); in assay [4], 200 µg/mL (≈ 563 µM); in assay [5], 200 µg/mL (≈ 563 µM); in assay [6], 250 µg/mL (≈ 704 µM).

As to `COc1cccc2cc(-c3ccc4c(=O)oc5ccccc5c4n3)c(=O)oc12`, the MIC in assay [1] is 1000 µg/mL (≈ 2690 µM); in assay [2], 1000 µg/mL (≈ 2690 µM); in assay [3], 200 µg/mL (≈ 539 µM); in assay [4], 100 µg/mL (≈ 269 µM); in assay [5], 200 µg/mL (≈ 539 µM); in assay [6], 250 µg/mL (≈ 673 µM).
